Source: patent publication US8648111B2, “N1-2-thiophene-2-ylethyl-N2-substituted biguanide derivate, preparation method thereof, and pharmaceutical composition containing the same as active ingredients” (Hanall Biopharma Co., Ltd., priority 2008, dated 2014)
“And” between values parts separate entries of the source, which are not always exact repeats. Equal entries are not always repeated. Where two headings read alike, the source gives them in different places.

Tests used:
Format in all cases: cell-based
[1] = test system: C2C12 cells; assay: Measurement of glucose absorption ability (3H-deoxy-glucose uptake with insulin); conditions: 100 uM compound with 1 μM insulin, 24 hours, differentiated C2C12, higher value = stronger, more than 200% counts as glucose absorption ability
Protocol: (§1) 2 mM metformin was used as a comparative compound for each of the plates (control group).
C2C12 cells (ATCC: American Type Culture Collection), a muscle cell model, were induced to differentiate into muscle cells in 2% bovine fetal serum-containing media (DMEM (Gibco), FBS (Gibco)) for 6 days. The C2C12 cells which differentiated into muscle cells were transferred to serum-free low glucose media (DMEM (Gibco), FBS (Gibco)), treated with 100 μM of each of the compounds, and then cultured with 1 μM of insulin for 24 hours. After cultivation, the cells were treated with 1 μCi ^3H-deoxy-glucose (Amersham Pharmacia) and 10 μM deoxy-glucose (Sigma) at 37° C. for 15 minutes. The media were removed therefrom, and the cells were washed twice with PBS (phosphate buffered saline). The washed cells were treated with 0.1N NaOH and neutralized with 1N HCl. The content of glucose absorbed into the cells was measured with a liquid scintillation counter.
A higher measurement value means a stronger ability to reduce insulin resistance.

[2] = test system: HepG2 cells; assay: Measurement of cholesterol synthesis inhibitory ability (cholesterol content in cell lysates, Amplex red)
Protocol: as §1
A cholesterol synthesis inhibitory ability, which is an important function of AMPK (AMP-activated protein kinase), was measured using HepG2 cells (ATCC: American Type Culture Collection) as a hepatic cell model according to the following procedure.
The hepatic cell model HepG2 cells were cultured in 1% serum-containing media (DMEM (Gibco), FBS (Gibco)) for 24 hours, and then treated with 100 μM or 500 μM of each of the compounds prepared in Examples for 24 hours. Then, the cells were disrupted with a lysis solution (0.1 M potassium phosphate, pH 7.4, 0.05 M NaCl, 5 mM cholic acid, 0.1% Triton X-100 (Sigma)). To the disrupted cells was added the same volume of a reaction solution (2 U/mL of a cholesterol oxidizing agent, 2 U/mL of a peroxidase, 0.2 U/mL of a cholesterol esterase, and 300 μM of Amplex red as a fluorescent factor (Molecular Probe)), which was allowed to react at 37° C. for 30 minutes. After completion of the reaction, the content of cholesterol formed in the cell lysates was measured at a wavelength of 560/590 nm (ex/em) using a fluorescence microscope.
A lower measurement value means an increased cholesterol synthesis inhibitory ability.

[3] = test system: HepG2 cells; assay: Measurement of triglyceride (triglyceride content in cell lysates, Amplex red)
Protocol: as §1
HepG2 cells (ATCC: American Type Culture Collection) were cultured in 1% serum-containing media (DMEM (Gibco), FBS (Gibco)) for 24 hours, and then treated with 100 μM or 500 μM of each of the compounds prepared in Examples for 24 hours. Then, the cells were disrupted with a lysis solution (0.1 M potassium phosphate, pH 7.4, 0.05 M NaCl, 5 mM cholic acid, 0.1% Triton X-100). […] After completion of the reaction, the content of triglyceride formed in the cell lysates was measured at a wavelength of 560/590 nm (ex/em) using a fluorescence microscope.
A lower measurement value means an increased triglyceride synthesis inhibitory ability.

[4] = test system: HepG2 cells; assay: Measurement of gluconeogenesis inhibitory ability (14C-lactate, glucose formed in cells)
Protocol: as §1
HepG2 cells (ATCC: American Type Culture Collection) were cultured in 10% serum-containing high glucose media, transferred to no serum-containing low glucose media (DMEM (Gibco), FBS (Gibco)), and then treated with 100 μM of each of the compounds for 24 hours. Then, the cells were treated with 0.5 μCi ^14C-lactate (Amersham Pharmacia) and 10 mM L-lactate (Sigma), and cultured for 4 hours. After cultivation, the media were removed therefrom, and the cells were washed with PBS, treated with 0.1N NaOH and kept at room temperature for 1 hour. Then, the cells were neutralized with 1N HCl, and the content of glucose formed in the cells was measured with a liquid scintillation counter.
A lower measurement value means an increased gluconeogenesis inhibitory ability.

[5] = 100 uM compound, 24 hours, HepG2, lower value = stronger cholesterol synthesis inhibition
[6] = 500 uM compound, 24 hours, HepG2, lower value = stronger cholesterol synthesis inhibition
[7] = 100 uM compound, 24 hours, HepG2, lower value = stronger triglyceride synthesis inhibition
[8] = 500 uM compound, 24 hours, HepG2, lower value = stronger triglyceride synthesis inhibition
[9] = 100 uM compound, 24 hours, HepG2, lower value = stronger gluconeogenesis inhibition
[10] = Metformin 2 mM, control group of each plate, HepG2

CCCCCCN=C(NCCc1cccs1)NC(=N)N.Cl [Example 4, N1-2-(thiophen-2-ylethyl)-N2-hexyl biguanide hydrochloride]
Glucose absorption (100 uM) Aver. [1]: 14.31%
Cholesterol (100 uM) Aver. [2, 5]: 33.81
Cholesterol (500 uM) Aver. [2, 6]: 51.74
Triglyceride (100 uM) Aver. [3, 7]: 22.80
Triglyceride (500 uM) Aver. [3, 8]: 3.22
Gluconeogenesis inhibition (100 uM) Aver. [4, 9]: 26.40

Cl.N=C(N)NC(=Nc1ccc(Br)cc1)NCCc1cccs1 [Example 33, N1-2-(thiophen-2-ylethyl)-N2-(4-bromophenyl) biguanide hydrochloride]
Glucose absorption (100 uM) Aver. [1]: 14.24%
Cholesterol (100 uM) Aver. [2, 5]: 24.52
Cholesterol (500 uM) Aver. [2, 6]: 31.66
Triglyceride (100 uM) Aver. [3, 7]: 29.12
Triglyceride (500 uM) Aver. [3, 8]: 27.48
Gluconeogenesis inhibition (100 uM) Aver. [4, 9]: 17.03

CC(C)(C)c1ccc(N=C(NCCc2cccs2)NC(=N)N)cc1.Cl [Example 28, N1-2-(thiophen-2-ylethyl)-N2-(4-t-butylphenyl) biguanide hydrochloride]
Glucose absorption (100 uM) Aver. [1]: 4.29%
Cholesterol (100 uM) Aver. [2, 5]: 27.49
Cholesterol (500 uM) Aver. [2, 6]: 26.60
Triglyceride (100 uM) Aver. [3, 7]: 15.55
Triglyceride (500 uM) Aver. [3, 8]: 15.21
Gluconeogenesis inhibition (100 uM) Aver. [4, 9]: 2.57

Cl.N=C(N)NC(=Nc1ccc(F)cc1)NCCc1cccs1 [Example 18, N1-2-(thiophen-2-ylethyl)-N2-(4-fluorophenyl) biguanide hydrochloride]
Glucose absorption (100 uM) Aver. [1]: 88.16%
Cholesterol (100 uM) Aver. [2, 5]: 50.3
Cholesterol (500 uM) Aver. [2, 6]: 23.4
Triglyceride (100 uM) Aver. [3, 7]: 67.0
Triglyceride (500 uM) Aver. [3, 8]: 39.5
Gluconeogenesis inhibition (100 uM) Aver. [4, 9]: 86.69

CC(C)(C)CC(C)(C)N=C(NCCc1cccs1)NC(=N)N.Cl [Example 2, N1-2-(thiophen-2-ylethyl)-N2-t-octyl biguanide hydrochloride]
Glucose absorption (100 uM) Aver. [1]: 10.46%
Cholesterol (100 uM) Aver. [2, 5]: 63.63
Cholesterol (500 uM) Aver. [2, 6]: 55.38
Triglyceride (100 uM) Aver. [3, 7]: 29.21
Triglyceride (500 uM) Aver. [3, 8]: −1.92
Gluconeogenesis inhibition (100 uM) Aver. [4, 9]: 68.28

CC(C)CN=C(NCCc1cccs1)NC(=N)N.Cl [Example 42, -2-(thiophen-2-ylethyl)-N2-isobutyl biguanide hydrochloride]
Glucose absorption (100 uM) Aver. [1]: 171.92%
Cholesterol (100 uM) Aver. [2, 5]: 89.11
Cholesterol (500 uM) Aver. [2, 6]: 73.15
Triglyceride (100 uM) Aver. [3, 7]: 97.66
Triglyceride (500 uM) Aver. [3, 8]: 88.50
Gluconeogenesis inhibition (100 uM) Aver. [4, 9]: 99.91

Cl.N=C(N)NC(=Nc1cccc(C(F)(F)F)c1)NCCc1cccs1 [Example 14, N1-2-(thiophen-2-ylethyl)-N2-(3-trifluoromethyl)phenyl biguanide hydrochloride]
Glucose absorption (100 uM) Aver. [1]: 4.38%
Cholesterol (100 uM) Aver. [2, 5]: 23.3
Cholesterol (500 uM) Aver. [2, 6]: 41.4
Triglyceride (100 uM) Aver. [3, 7]: 11.8
Triglyceride (500 uM) Aver. [3, 8]: 13.2
Gluconeogenesis inhibition (100 uM) Aver. [4, 9]: 8.75

Cl.N=C(N)NC(=Nc1cccc(Br)c1)NCCc1cccs1 [Example 34, N1-2-(thiophen-2-ylethyl)-N2-(3-bromophenyl) biguanide hydrochloride]
Glucose absorption (100 uM) Aver. [1]: 6.05%
Cholesterol (100 uM) Aver. [2, 5]: 26.00
Cholesterol (500 uM) Aver. [2, 6]: 32.53
Triglyceride (100 uM) Aver. [3, 7]: 26.57
Triglyceride (500 uM) Aver. [3, 8]: 19.49
Gluconeogenesis inhibition (100 uM) Aver. [4, 9]: 4.96

CCCCCCc1ccc(N=C(NCCc2cccs2)NC(=N)N)cc1.Cl [Example 29, N1-2-(thiophen-2-ylethyl)-N2-(4-hexylphenyl) biguanide hydrochloride]
Glucose absorption (100 uM) Aver. [1]: 3.96%
Cholesterol (100 uM) Aver. [2, 5]: 30.10
Cholesterol (500 uM) Aver. [2, 6]: 119.39
Triglyceride (100 uM) Aver. [3, 7]: 8.04
Triglyceride (500 uM) Aver. [3, 8]: 42.57
Gluconeogenesis inhibition (100 uM) Aver. [4, 9]: 1.26

COc1cc(N=C(NCCc2cccs2)NC(=N)N)cc(OC)c1.Cl [Example 32, N1-2-(thiophen-2-ylethyl)-N2-(3,5-dimethoxyphenyl) biguanide hydrochloride]
Glucose absorption (100 uM) Aver. [1]: 11.68%
Cholesterol (100 uM) Aver. [2, 5]: 48.02
Cholesterol (500 uM) Aver. [2, 6]: 26.70
Triglyceride (100 uM) Aver. [3, 7]: 70.80
Triglyceride (500 uM) Aver. [3, 8]: 28.47
Gluconeogenesis inhibition (100 uM) Aver. [4, 9]: 152.19

CN=C(NCCc1cccs1)NC(=N)N.Cl [Example 5, N1-2-(thiophen-2-ylethyl)-N2-methyl biguanide hydrochloride]
Glucose absorption (100 uM) Aver. ([1]; hydrochloride): 350.4%
Cholesterol (100 uM) Aver. ([2]; 100 uM compound, 24 hours, HepG2, lower value = stronger cholesterol synthesis inhibition, hydrochloride): 49.29
Cholesterol (500 uM) Aver. [2, 6]: 41.36
Triglyceride (100 uM) Aver. ([3]; 100 uM compound, 24 hours, HepG2, lower value = stronger triglyceride synthesis inhibition, hydrochloride): 65.03
Triglyceride (500 uM) Aver. [3, 8]: 41.59
Gluconeogenesis inhibition (100 uM) Aver. ([4]; 100 uM compound, 24 hours, HepG2, lower value = stronger gluconeogenesis inhibition, hydrochloride, 100 µM): 58.50

N1-2-(thiophen-2-ylethyl)-N2-(4-bromobenzyl) biguanide hydrochloride [Example 37]
Glucose absorption (100 uM) Aver. [1]: 7.71%
Cholesterol (100 uM) Aver. [2]: 28.36
Cholesterol (500 uM) Aver. [2]: 30.84
Triglyceride (100 uM) Aver. [3]: 61.41
Triglyceride (500 uM) Aver. [3]: 20.15
Gluconeogenesis inhibition (100 uM) Aver. [4]: 89.96

COc1ccc(N=C(NCCc2cccs2)NC(=N)N)cc1.Cl [Example 30, N1-2-(thiophen-2-ylethyl)-N2-(4-methoxyphenyl) biguanide hydrochloride (isomer)]
Glucose absorption (100 uM) Aver. [1]: 148.42%
Cholesterol (100 uM) Aver. [2, 5]: 73.64
Cholesterol (500 uM) Aver. [2, 6]: 26.15
Triglyceride (100 uM) Aver. [3, 7]: 91.91
Triglyceride (500 uM) Aver. [3, 8]: 48.42
Gluconeogenesis inhibition (100 uM) Aver. ([4]; 100 uM compound, 24 hours, HepG2, lower value = stronger gluconeogenesis inhibition, 100 µM): 105.18

CN(C)C(=N)N=C(N)N [Metformin, reference compound]
Cholesterol Aver. [2, 10]: 65.31 and 74.50 and 85.91 and 70.69 and 73.31
Triglyceride Aver. [3, 10]: 81.14 and 69.58 and 73.61 and 70.05 and 74.57
Gluconeogenesis inhibition Aver. [4, 10]: 39.79 and 59.14 and 53.09 and 78.33 and 64.50
